This is an account of results in patent publication US20150203474A1, “SOLID FORMS COMPRISING INHIBITORS OF HCV NS5A, COMPOSITIONS THEREOF, AND USES THEREWITH” (PRESIDIO PHARMACEUTICALS ,INC., priority 2012, published 2015).

One data set concerns HCV genotype 5a replicon. The experiment in a line: HCV replicon assay, GT 5a (luciferase readout). Type of data set: cell-based. Conditions: Hepatitis C virus; GT 5a replicon; n > 3. Here is the method:
(§1) Biological activity of the compounds of the invention was determined using an HCV replicon assay. The 1b_Huh-Luc/Neo-ET cell line persistently expressing a bi-cistronic genotype 1b replicon in Huh 7 cells was obtained from ReBLikon GMBH. This cell line was used to test compound inhibition using luciferase enzyme activity readout as a measurement of compound inhibition of replicon levels.
(§2) On Day 1 (the day after plating), each compound was added in triplicate to the cells. Plates incubated for 72 hrs prior to running the luciferase assay. Enzyme activity was measured using a Bright-Glo Kit (cat. number E2620) manufactured by Promega Corporation. The following equation was used to generate a percent control value for each compound.
(§3) % Control=(Average Compound Value/Average Control)*100
(§4) The EC50 value was determined using GraphPad Prism and the following equation:
(§5) Y=Bottom+(Top−Bottom)/(1+10̂((LogIC50−X)*HillSlope))
(§6) EC50 values of compounds are repeated several times in the replicon assay.
(§7) The disclosed compounds can inhibit multiple genotypes of HCV including, but not limited to 1a, 1b, 2a, 3a, 4a and 5a. The EC50s are measured in the corresponding replicon assays that are similar to HCV 1b replicon assay as described above.

The next data set deals with HCV genotype 3a replicon. The experiment in a line: HCV replicon assay, GT 3a (luciferase readout). Type of data set: cell-based. Conditions: Hepatitis C virus; GT 3a replicon; n > 3. The method, then:
as §1, §2, §3, §4, §5, §6, §7

Another data set concerns HCV genotype 2a replicon. The experiment in a line: HCV replicon assay, GT 2a (luciferase readout). Type of data set: cell-based. The following applies: Hepatitis C virus; GT 2a replicon; n > 3. The method, then: as §1, §2, §3, §4, §5, §6, §7
Data set [1] relates to bi-cistronic genotype 1b replicon in Huh 7 cells (1b_Huh-Luc/Neo-ET cell line). The experiment in a line: HCV replicon assay, GT 1b (luciferase readout). Type of data set: cell-based. Conditions: Hepatitis C virus, GT 1b replicon, n > 3. The method, then:
as §1, §2, §3, §4, §5, §6

Another data set has as its system HCV genotype 1a replicon. The experiment in a line: HCV replicon assay, GT 1a (luciferase readout). Type of data set: cell-based. Conditions: Hepatitis C virus; GT 1a replicon; n > 3. Here is the method: as §1, §2, §3, §4, §5, §6, §7
A further data set has as its system HCV genotype 4a replicon. The experiment in a line: HCV replicon assay, GT 4a (luciferase readout). It counts as cell-based. Conditions: Hepatitis C virus; GT 4a replicon; n > 3. The method, then: as §1, §2, §3, §4, §5, §6, §7
Data set [2] in a line: Moisture sorption profile (DVS) of Compound II Form I and amorphous Compound II. It counts as physicochemical. Conditions: DVS at 25° C. The method, then:
The moisture sorption profile was generated of the sample as well as of a sample of amorphous Compound II at 25° C. using a DVS Moisture Balance Flow System (Model Advantage) with the following conditions: sample size approximately 10 mg, drying 25° C. for 60 minutes, adsorption range 0% to 95% RH, desorption range 95% to 0% RH, and step interval 5%. The equilibrium criterion was <0.01% weight change in 5 minutes for a maximum of 120 minutes.

Data set [3] in a line: Solubility of Form I and free base compound 4-3 (visual and HPLC assay of filtrate). Type of data set: physicochemical. The following applies: for pH (Filtrated): filtrate of solubility sample; for HPLC Solubility / Visual Solubility (observation in words) / solubility at 24 h: target conc. 2.0 mg/mL; for HPLC Solubility / solubility at 24 h: 24 hours ambient, 0.45-μm filtrate; for solubility at 24 h: thermodynamic from solid, read-out: HPLC Solubility. The method, then:
Solubility of Form I as well as the free base compound 4-3 was tested. Solubility was measured by placing a small quantity of the compound to be analyzed in a glass vial, capping and rotating the vial overnight at ambient conditions (24 hours). Target concentration was 2.0 mg/mL. The samples were filtrated with 0.45-μm filters. The subsequent filtrate was collected for HPLC assay. HPLC conditions are shown in Table 10 in Appendix A. Solubility for Form I is shown in Table 11 and for the free base compound 4-3 is shown in Table 12 in Appendix A. [table]

Structures are written as SMILES. Like-named read-outs stand apart in the source and are kept apart here.

As to `COC(=O)N[C@H](C(=O)N1CCC[C@H]1c1ncc(-c2ccc3cc(-c4ccc5nc([C@@H]6CCCN6C(=O)[C@@H](NC(=O)OC)C(C)C)[nH]c5c4)ccc3c2)[nH]1)C(C)C` [Compound I], the EC50 came out at 0.039 nM with HCV genotype 5a replicon; 1.26 nM in the data set with HCV genotype 3a replicon; 0.139 nM in the data set with HCV genotype 2a replicon; 0.016 nM in data set [1]; 0.135 nM in the data set on HCV genotype 1a replicon; 0.052 nM with HCV genotype 4a replicon.
For the compound `CC[C@H](C)[C@H](NC(=O)OC)C(=O)N1CCC[C@H]1c1nc2ccc(-c3ccc4cc(-c5cnc([C@@H]6CCCN6C(=O)[C@@H](NC(=O)OC)[C@@H](C)OC)[nH]5)ccc4c3)cc2[nH]1` [amorphous Compound II], the “weight percentage change (water uptake) from 0-75% RH” value in data set [2] is reported as 13.57%.
On to `CC[C@H](C)[C@H](NC(=O)OC)C(=O)N1CCC[C@H]1c1nc2ccc(-c3ccc4cc(-c5cnc([C@@H]6CCCN6C(=O)[C@@H](NC(=O)OC)[C@@H](C)OC)[nH]5)ccc4c3)cc2[nH]1` [Compound II], for which the EC50 in the data set on HCV genotype 5a replicon amounted to 0.04 nM; in the data set with HCV genotype 3a replicon, 0.4 nM; with HCV genotype 2a replicon, 0.11 nM; in data set [1], 0.01 nM; in the data set with HCV genotype 1a replicon it was 0.07 nM; in the data set on HCV genotype 4a replicon, 0.04 nM.
Consider `CC[C@H](C)[C@H](NC(=O)OC)C(=O)N1CCC[C@H]1c1nc2ccc(-c3ccc4cc(-c5cnc([C@@H]6CCCN6C(=O)[C@@H](NC(=O)OC)[C@@H](C)OC)[nH]5)ccc4c3)cc2[nH]1` [compound 4-3], for which the “pH (Filtrated)” value in data set [3] (0.1N HCl) was 1.09; in data set [3] (Water) it was 8.83; in data set [3] (pH 2 medium) it was 2.17; in data set [3] (pH 3 medium), 3.59; in data set [3] (pH 4 medium), 4.72; in data set [3] (pH 5 medium) it was 5.27. Also, the “pH (Filtrated)” value was found to be 6.04 in data set [3] (pH 6 medium), 7.00 in data set [3] (pH 7 medium) and 7.91 in data set [3] (pH 8 medium). Also, the “HPLC Solubility” value in data set [3] (0.1N HCl) was 2066 µg/mL; in data set [3] (Water), less than 1 µg/mL; in data set [3] (pH 2 medium) it was 2056 µg/mL; in data set [3] (pH 3 medium), 1763 µg/mL; in data set [3] (pH 4 medium), 11 µg/mL; in data set [3] (pH 5 medium), 1 µg/mL. Also, the “Visual Solubility (observation in words)” value is reported as “Turbid +” in data set [3] (Water); “A few” in data set [3] (pH 3 medium); “Turbid +” in data set [3] (pH 4 medium); “Turbid +” in data set [3] (pH 6 medium); “Turbid +” in data set [3] (pH 7 medium); “Turbid +” in data set [3] (pH 8 medium). Further, the solubility at 24 h in data set [3] (pH 6 medium, pH 6, aqueous buffer, pH 6 medium) is less than 1 µg/mL; in data set [3] (pH 7 medium, pH 7, aqueous buffer, pH 7 medium), less than 1 µg/mL; in data set [3] (pH 8 medium, pH 8, aqueous buffer, pH 8 medium), less than 1 µg/mL.
